Legend:
TGase [1] = assay: Analysis of TGase activity of cells (5-(biotinamido)pentylamine incorporation); format: cell-based, human; details: HRECs
Method: Purchased from Applied Cell Biology Research Institute (Cell Systems, Kirkland, Wash.), human retinal endothelial cells (HRECs) were cultured in an M19 medium, containing 20% FBS, 3 ng/mL bFGF, 5 U/mL heparin, 100 U/mL penicillin and […], in a 2% gelatin-coated plate.
Before the following Test Examples 2 to 7, the HRECs were cultured for 6 hr in a medium containing 1% FBS and an antibiotic agent, thus preparing HRECs of Test Example 1.
With reference to FIG. 4A, the HRECs of Test Example 1 were treated with 0 to 20 μM midazolam, cultured for 2 hr, treated with 10 ng/mL VEGF, incubated for 2 hr, treated with 1 mM 5-(biotinamido)pentylamine, incubated for 1 hr, fixed with 3.7% formaldehyde, treated with 0.2% triton X-100, treated with a blocking solution containing 138 mM NaCl, 0.1% Tween 20 and 2% BSA dissolved in a 20 mM Tris (pH 7.6) buffer, incubated for 30 min, incubated for 1 hr with FITC-conjugated streptavidin (1:200, v/v), and then measured using confocal microscopy to thus determine the fluorescence intensity of single cells.
With reference to FIG. 4B, the HRECs of Test Example 1 were subjected to the respective treatments below and cultured for 30 min. Here, treatment with 10 ng/mL VEGF was performed for 2 hr. […]

[2] = tested on: endothelial monolayer of HRECs; assay: Analysis of cell permeability (FITC-dextran, Transwell); format: cell-based, human; details: HREC monolayer, 10 ng/mL VEGF 90 min with 20 μM midazolam, 5 μM BAPTA-AM, 1 mM NAC, 0.5 μM Trolox, 50 μM cystamine or 20 μM MDC; 40 kDa FITC-dextran 60 min (FIG. 7)
Method: The HRECs were cultured (e.g. about 5 days) until the cell confluence thereof reached an appropriate level on gelatin-coated 0.4 μm polycarbonate membranes of Transwell Permeable Supports (Costar, Corning, N.Y.), followed by the respective treatments below and culture for 30 min. Here, treatment with 10 ng/mL VEGF was performed for 90 min. Thereafter, the HRECs were treated with 1 mg/mL 40 kDa FITC-dextran (Sigma-Aldrich), incubated for 60 min, after which the amount of FITC-dextran that was diffused into the lower chamber through the endothelial monolayer of HERCs was measured using a microplate spectrofluorometer (Molecular Devices, Sunnyvale, Calif.).

retinas of diabetic mice = assay: Analysis of ROS concentration in retinas of diabetic mouse model (DHE); format: in vivo, C57BL/6 mice; details: intravitreal 2 μL of 2 mM midazolam, 2 μM Trolox or 500 mM NAC (FIGS. 12, 13)
Method: (§1) 6-week-old male C57BL/6 mice (DBL, EumSeong, Korea) were administered with streptozotocin (Sigma-Aldrich) dissolved in a 100 mM citrate buffer (pH 4.5) through intraperitoneal injection in an amount of 150 mg each per kg of mouse weight to give diabetic mouse models. In the diabetic mouse models, the blood glucose level was 19 mM or more when not fasting, and polyuria and diabetes, considered signs of diabetes, were observed. […]
Normal mice (Normal), midazolam-administered normal mice (Midazolam), diabetic mice (Diabetic), midazolam-administered diabetic mice (Diabetic+Midazolam), Trolox-administered diabetic mice (Diabetic+Trolox) and NAC-administered diabetic mice (Diabetic+NAC) were subjected to cervical dislocation and the eyeballs were extracted therefrom and rapidly frozen with an OCT compound (Sakura Finetek, Torrance, Calif., USA). Using a microtome-cryostat (Leica Biosystems, Wetzlar, Germany), 10 μm-thick non-fixed cryosections were prepared, treated with a solution of 5 μM dihydroethidium (DHE, Invitrogen-Molecular Probes) in PBS, stained for 30 min, and measured using confocal microscopy. The results of ROS concentrations quantitatively analyzed using the fluorescence intensity of the cryosections are shown in FIGS. 12 and 13.

TGase [3] = assay: Analysis of TGase activity in retinas of diabetic mouse model; format: in vivo, C57BL/6 mice; details: intravitreal 2 μL of 2 mM midazolam, 2 μM cystamine or 500 mM MDC (FIGS. 14, 15)
Method: as §1
48 μL of 100 mM 5-(biotinamido)pentylamine was injected into the left ventricle of each of normal mice (Normal), midazolam-administered normal mice (Midazolam), diabetic mice (Diabetic), midazolam-administered diabetic mice (Diabetic+Midazolam), flumazenil- and midazolam-administered diabetic mice (Diabetic+flumazenil+Midazolam), cystamine-administered diabetic mice (Diabetic+cystamine) and MDC-administered diabetic mice (Diabetic+MDC) and circulated for 10 min, after which cervical dislocation was performed, and the eyeballs were extracted, fixed with 4% paraformaldehyde for 45 min, incised and subjected to permeation treatment for 30 min. The obtained retinal samples were incubated with a blocking solution for 30 min, treated with FITC-conjugated streptavidin (1:200, v/v), stained for 1 hr, and measured using confocal microscopy. […]

Cc1ncc2n1-c1ccc(Cl)cc1C(c1ccccc1F)=NC2 [midazolam]
TGase activity, concentration dependence (TGase [1]; 0 to 20 μM midazolam 2 hr, then 10 ng/mL VEGF 2 hr (FIG. 4A)): TGase activity was decreased with an increase in the concentration of midazolam
TGase activity (VEGF-induced) compared to control (TGase [1]; 10 ng/mL VEGF 2 hr with 20 μM midazolam, 5 μM BAPTA-AM, 1 mM NAC, 0.5 μM Trolox, 50 μM cystamine or 20 μM MDC (FIG. 4B)): substantially the same effect of inhibiting TGase activity as the TGase inhibitors cystamine and MDC
FITC-dextran diffused into lower chamber (cell permeability) / adherens junction disruption due to VEGF [2]: prevented the adherens junction disruption due to VEGF and thus FITC-dextran was not diffused
ROS concentration in retina compared to normal mice (retinas of diabetic mice): an increase in ROS concentration was suppressed
TGase activity in retina compared to normal mice (TGase [3]): an increase in TGase activation was suppressed

Reference: patent publication US11020405B2, “Method for prevention or treatment of diabetic complications” (KANGWON NATIONAL UNIVERSITY UNIVERSITY-INDUSTRY COOPERATION …, priority 2017, dated 2021)
